Legend:
Assay type in all cases: in vivo
[1] = system: ryegrass, Italian (Italian ryegrass, Lolium multiflorum); experiment: Test A preemergence; conditions: Lolium multiflorum, pre-emergence, 240 h, Preemergence
Procedure, shortened: (§1)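 Compounds were formulated in a non-phytotoxic solvent mixture with surfactant and applied as a preemergence directed soil spray after seeding, or sprayed postemergence over plants 2 to 10 cm tall at the one- to two-leaf stage. Evaluation after about 10 d compared treated with untreated controls, using a scale from 0 (no effect) to 100 (complete control).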

[2] = system: barnyardgrass (Echinochloa crus-galli); experiment: Test A preemergence; conditions: Echinochloa crus-galli, pre-emergence, 240 h, Preemergence
Procedure, shortened: as §1

[3] = system: pigweed (Amaranthus retroflexus); experiment: Test A preemergence; conditions: Amaranthus retroflexus, pre-emergence, 240 h, Preemergence
[4] = system: ragweed (common ragweed, Ambrosia elatior); experiment: Test A preemergence; conditions: Ambrosia artemisiifolia, pre-emergence, 240 h, Preemergence
Procedure, shortened: as §1

Kochia (Kochia scoparia) [5] = experiment: Test A preemergence; conditions: Bassia scoparia, pre-emergence, 240 h, Preemergence
Procedure, shortened: as §1

[6] = system: giant foxtail (Setaria faberii); experiment: Test A preemergence; conditions: Setaria faberi, pre-emergence, 240 h, Preemergence
Procedure, shortened: as §1

[7] = system: barnyardgrass (Echinochloa crus-galli); experiment: Test B flooded paddy test; conditions: Echinochloa crus-galli, Flood, 250 g ai/ha; scale of 0 to 100 where 0 is no effect and 100 is complete control; read-out: Barnyardgrass plant response rating
Procedure, shortened: (§2)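 Evaluation by eye, against controls, occurred 13–15 d post-treatment in a greenhouse, using a 0 (no effect) to 100 (complete control) scale. Application was into the paddy water, 3 cm deep over the soil, on 2-leaf plants.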

[8] = system: ducksalad (Heteranthera limosa); experiment: Test B flooded paddy test; conditions: Heteranthera limosa, Flood, 250 g ai/ha; scale of 0 to 100 where 0 is no effect and 100 is complete control; read-out: Ducksalad plant response rating
Procedure, shortened: as §2

[9] = system: sedge, umbrella (small-flower umbrella sedge, Cyperus difformis); experiment: Test B flooded paddy test; conditions: Cyperus difformis, Flood, 250 g ai/ha; scale of 0 to 100 where 0 is no effect and 100 is complete control; read-out: Sedge, Umbrella plant response rating
Procedure, shortened: as §2

rice (Oryra sativa) = experiment: Test B flooded paddy test; conditions: Oryza sativa, Flood, 250 g ai/ha; scale of 0 to 100 where 0 is no effect and 100 is complete control; read-out: Rice plant response rating
Procedure, shortened: as §2

[10] = system: ryegrass, Italian (Italian ryegrass, Lolium multiflorum); experiment: Test A postemergence; conditions: Lolium multiflorum, post-emergence, 240 h, Postemergence, read-out: Plant response rating, Ryegrass, Italian
Procedure, shortened: as §1

[11] = system: blackgrass (Alopecurus myosuroides); experiment: Test A postemergence; conditions: Alopecurus myosuroides, post-emergence, 240 h, Postemergence, read-out: Plant response rating, Blackgrass
Procedure, shortened: as §1

[12] = system: barnyardgrass (Echinochloa crus-galli); experiment: Test A postemergence; conditions: Echinochloa crus-galli, post-emergence, 240 h, Postemergence, read-out: Plant response rating, Barnyardgrass
Procedure, shortened: as §1

[13] = system: Galium (catchweed bedstraw, Galium aparine); experiment: Test A postemergence; conditions: Galium, post-emergence, 240 h, Postemergence, read-out: Plant response rating, Galium
Procedure, shortened: as §1

[14] = system: pigweed (Amaranthus retroflexus); experiment: Test A postemergence; conditions: Amaranthus retroflexus, post-emergence, 240 h, Postemergence, read-out: Plant response rating, Pigweed
Procedure, shortened: as §1

[15] = system: wheat (Triticum aestivum); experiment: Test A postemergence; conditions: Triticum aestivum, post-emergence, 240 h, Postemergence, read-out: Plant response rating, Wheat
Procedure, shortened: as §1

corn (Zea mays) = experiment: Test A postemergence; conditions: Zea mays, post-emergence, 240 h, Postemergence
Procedure, shortened: as §1

[16] = system: ragweed (common ragweed, Ambrosia elatior); experiment: Test A postemergence; conditions: Ambrosia artemisiifolia, post-emergence, 240 h, Postemergence, read-out: Plant response rating, Ragweed
Procedure, shortened: as §1

Kochia (Kochia scoparia) [17] = experiment: Test A postemergence; conditions: Bassia scoparia, post-emergence, 240 h, Postemergence, read-out: Plant response rating, Kochia
Procedure, shortened: as §1

[18] = system: giant foxtail (Setaria faberii); experiment: Test A postemergence; conditions: Setaria faberi, post-emergence, 240 h, Postemergence, read-out: Plant response rating, Foxtail, Giant
Procedure, shortened: as §1

[19] = 125 g ai/ha, visual injury after approximately 10 d, 0 to 100 scale where 0 is no effect and 100 is complete control
[20] = 31 g ai/ha, visual injury after approx. 10 d, 0 to 100 scale, 0 no effect, 100 complete control

Q: `Cc1oncc1NC(=O)[C@H]1C(=O)N(C)C[C@@H]1c1cc(F)cc(F)c1` [Compound 970] was tested. Which pest or weed control at 125 g/ha ([1]; 125 g ai/ha, visual injury rating after approximately 10 d, read-out: Ryegrass, Italian plant response rating (0 to 100 scale, 0 is no effect, 100 is complete control)) did it give?
A: 0%

Q: And the pest or weed control at 31 g/ha ([1]; 31 g ai/ha, 0 to 100 scale (0 no effect, 100 complete control), read-out: Plant response rating, Ryegrass, Italian)?
A: 0%

Q: What about the pest or weed control at 125 g/ha ([2]; 125 g ai/ha, visual injury rating after approximately 10 d, read-out: Barnyardgrass plant response rating (0 to 100 scale, 0 is no effect, 100 is complete control)) of the same compound?
A: 0%

Q: What about the pest or weed control at 31 g/ha ([2]; 31 g ai/ha, 0 to 100 scale (0 no effect, 100 complete control), read-out: Plant response rating, Barnyardgrass) of the same compound?
A: 0%

Q: And the pest or weed control at 125 g/ha ([3]; 125 g ai/ha, visual injury rating after approximately 10 d, read-out: Pigweed plant response rating (0 to 100 scale, 0 is no effect, 100 is complete control))?
A: 0%

Q: And the pest or weed control at 31 g/ha ([3]; 31 g ai/ha, 0 to 100 scale (0 no effect, 100 complete control), read-out: Plant response rating, Pigweed)?
A: 0%

Q: And the pest or weed control at 125 g/ha ([4]; 125 g ai/ha, visual injury rating after approximately 10 d, read-out: Ragweed plant response rating (0 to 100 scale, 0 is no effect, 100 is complete control))?
A: 0%

Q: And the pest or weed control at 31 g/ha ([4]; 31 g ai/ha, 0 to 100 scale (0 no effect, 100 complete control), read-out: Plant response rating, Ragweed)?
A: 0%

Q: And the pest or weed control at 125 g/ha (Kochia (Kochia scoparia) [5]; 125 g ai/ha, visual injury rating after approximately 10 d, read-out: Kochia plant response rating (0 to 100 scale, 0 is no effect, 100 is complete control))?
A: 0%

Q: What about the pest or weed control at 31 g/ha (Kochia (Kochia scoparia) [5]; 31 g ai/ha, 0 to 100 scale (0 no effect, 100 complete control), read-out: Plant response rating, Kochia) of the same compound?
A: 0%

Q: And the pest or weed control at 125 g/ha ([6]; 125 g ai/ha, visual injury rating after approximately 10 d, read-out: Foxtail, Giant plant response rating (0 to 100 scale, 0 is no effect, 100 is complete control))?
A: 80%

Q: What about the pest or weed control at 31 g/ha ([6]; 31 g ai/ha, 0 to 100 scale (0 no effect, 100 complete control), read-out: Plant response rating, Foxtail, Giant) of the same compound?
A: 20%

Q: And the pest or weed control at 250 g/ha [7]?
A: 0%

Q: And the pest or weed control at 250 g/ha [8]?
A: 0%

Q: What about the pest or weed control at 250 g/ha [9] of the same compound?
A: 0%

Q: What about the pest or weed control at 250 g/ha (rice (Oryra sativa)) of the same compound?
A: 0%

Q: What about the pest or weed control at 125 g/ha [10, 19] of the same compound?
A: 0%

Q: And the pest or weed control at 31 g/ha [10, 20]?
A: 0%

Q: And the pest or weed control at 125 g/ha [11, 19]?
A: 0%

Q: What about the pest or weed control at 31 g/ha [11, 20] of the same compound?
A: 0%

Q: What about the pest or weed control at 125 g/ha [12, 19] of the same compound?
A: 0%

Q: And the pest or weed control at 31 g/ha [12, 20]?
A: 0%

Q: What about the pest or weed control at 125 g/ha [13, 19] of the same compound?
A: 0%

Q: What about the pest or weed control at 31 g/ha [13, 20] of the same compound?
A: 0%

Q: What about the pest or weed control at 125 g/ha [14, 19] of the same compound?
A: 0%

Q: What about the pest or weed control at 31 g/ha [14, 20] of the same compound?
A: 0%

Q: And the plant injury at 125 g/ha [15, 19]?
A: 0%

Q: What about the plant injury at 31 g/ha [15, 20] of the same compound?
A: 0%

Q: What about the Corn plant response rating (crop injury, 0 = no effect, 100 = complete kill) at 125 g/ha (corn (Zea mays); [19]) of the same compound?
A: 0%

Q: And the Corn plant response rating (crop injury, 0 = no effect, 100 = complete kill) at 31 g/ha (corn (Zea mays); [20])?
A: 0%

Q: And the pest or weed control at 125 g/ha [16, 19]?
A: 0%

Q: And the pest or weed control at 31 g/ha [16, 20]?
A: 0%

Q: And the pest or weed control at 125 g/ha (Kochia (Kochia scoparia) [17]; [19])?
A: 0%

Q: And the pest or weed control at 31 g/ha (Kochia (Kochia scoparia) [17]; [20])?
A: 0%

Q: What about the pest or weed control at 125 g/ha [18, 19] of the same compound?
A: 0%

Q: And the pest or weed control at 31 g/ha [18, 20]?
A: 0%
